Laboratory results as given in patent publication US20250248979A1, “NOVEL GPX4 INHIBITORS AND USES THEREOF” (THE TRUSTEES OF COLUMBIA UNIVERSITY IN THE CITY OF NEW YORK, priority 2022, published 2025).
≈ marks a conversion by molar mass, not a printed value.

System: HT-1080 cells
Experiment: Cellular dose response assay, HT-1080 with and without Fer-1
Type: cell-based, human
Settings: not given
Outline: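 Cells were seeded at 1500 per well, grown overnight, then treated in triplicate with 12-point 2-fold compound dilutions (0.4% DMSO final) for 48 h at 37 °C, 5% CO2. HT-1080 series were run with and without Fer-1. Viability was read by CellTiter-Glo luminescence.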

Row | SMILES | Selectivity
1 | Cn1nc(C(=O)NC(C)(C)COC(=O)CCl)c2ccc(-c3ccc4c(c3)OCO4)cc21 [QW-594] | 3.3

Same assay, conditions: HT1080 + Fer-1; read-out: IC50 (uM) HT1080 + Fer-1

Row | IC50 | SMILES
2 | 12.1 µM | Cn1nc(-n2cc(C(C)(C)COC(=O)CCl)nn2)c2ccc(-c3ccc(N4CCOCC4)c(Cl)c3)cc21 [QW-680]
3 | 5.7 µM | COc1ccc(-c2ccc3c(C(=O)NC(C)(C)C(C)(C)OC(=O)CCl)nn(C)c3c2)cc1Cl [QW-730]
4 | 5.4 µM | COc1c(Cl)cc(-c2ccc3c(C(=O)NC(C)(C)C(C)(C)OC(=O)CCl)nn(C)c3c2)cc1Cl [QW-750]

Row | SMILES | IC50
5 | Cn1nc(C(=O)NC(C)(C)COC(=O)CCl)c2ccc(-c3ccc4c(c3)OCO4)cc21 [QW-594] | 8.8 µM

Same assay, conditions: HT1080, without Fer-1; read-out: IC50 (uM) HT1080

Row | IC50 | SMILES
6 | 3 µM | Cn1nc(-n2cc(C(C)(C)COC(=O)CCl)nn2)c2ccc(-c3ccc(N4CCOCC4)c(Cl)c3)cc21 [QW-680]
7 | 0.59 µM | COc1ccc(-c2ccc3c(C(=O)NC(C)(C)C(C)(C)OC(=O)CCl)nn(C)c3c2)cc1Cl [QW-730]
8 | 1.6 µM | COc1c(Cl)cc(-c2ccc3c(C(=O)NC(C)(C)C(C)(C)OC(=O)CCl)nn(C)c3c2)cc1Cl [QW-750]

Row | SMILES | IC50
9 | Cn1nc(C(=O)NC(C)(C)COC(=O)CCl)c2ccc(-c3ccc4c(c3)OCO4)cc21 [QW-594] | 2.7 µM

Same assay, conditions: RSL3 as control

Row | SMILES | ferroptosis induction / potency in HT-1080 cells, result in words
10 | COc1ccc(-c2ccc3c(C(=O)NC(C)(C)C(C)(C)OC(=O)CCl)nn(C)c3c2)cc1Cl [QW-730] | sub-micromolar GI50 value
11 | COc1c(Cl)cc(-c2ccc3c(C(=O)NC(C)(C)C(C)(C)OC(=O)CCl)nn(C)c3c2)cc1Cl [QW-750] | moderate potency

Same assay, conditions: ferroptosis selectivity, HT1080 + Fer-1 vs HT1080

Row | SMILES | Selectivity
12 | Cn1nc(-n2cc(C(C)(C)COC(=O)CCl)nn2)c2ccc(-c3ccc(N4CCOCC4)c(Cl)c3)cc21 [QW-680] | 4.0
13 | COc1ccc(-c2ccc3c(C(=O)NC(C)(C)C(C)(C)OC(=O)CCl)nn(C)c3c2)cc1Cl [QW-730] | 9.7
14 | COc1c(Cl)cc(-c2ccc3c(C(=O)NC(C)(C)C(C)(C)OC(=O)CCl)nn(C)c3c2)cc1Cl [QW-750] | 3.4

System: not listed separately
Experiment: in vitro
Type: in vitro ADME, human
Settings: human, microsomes
Protocol: (§1) […]. The incubation timepoints measured were 0, 5, 10, 15, 30, and 45 minutes. All samples were prepared in duplicate and analyzed by LC-MS/MS.

Row | SMILES | Microsome Stability t1/2 (min) human
15 | Cn1nc(C(=O)NC(C)(C)COC(=O)CCl)c2ccc(-c3csc4ccccc34)cc21 [QW-505] | 1.7 min
16 | CC(C)Oc1ccc(-c2ccc3c(C(=O)NC(C)(C)COC(=O)CCl)nn(C)c3c2)cc1Cl [QW-550] | 49 min
17 | Cn1nc(C(=O)NC(C)(C)COC(=O)CCl)c2ccc(-c3ccc(Oc4ccccc4)c(Cl)c3)cc21 [QW-561] | 12 min
18 | Cn1nc(C(=O)NC(C)(C)COC(=O)CCl)c2ccc(-c3ccc4c(c3)OCO4)cc21 [QW-594] | 250 min

Results, then the compound that gave them:

Row | Microsome Stability t1/2 (min) human | SMILES
19 | 22 min | Cn1nc(C(=O)NC(C)(C)COC(=O)CCl)c2ccc(-c3ccc(Cl)c(Cl)c3)cc21 [QW-570]
20 | 28 min | Cn1nc(-n2cc(C(C)(C)COC(=O)CCl)nn2)c2ccc(-c3ccc(N4CCOCC4)c(Cl)c3)cc21 [QW-680]
21 | 6.6 min | COc1ccc(-c2ccc3c(C(=O)NC(C)(C)C(C)(C)OC(=O)CCl)nn(C)c3c2)cc1Cl [QW-730]
22 | 10.2 min | COc1c(Cl)cc(-c2ccc3c(C(=O)NC(C)(C)C(C)(C)OC(=O)CCl)nn(C)c3c2)cc1Cl [QW-750]

System: not listed separately
Experiment: in vitro
Type: in vitro ADME, mouse
Settings: mouse, microsomes
Protocol: as §1

Row | SMILES | Microsome Stability t1/2 (min) mouse | unbound clearance rate
23 | Cn1nc(C(=O)NC(C)(C)COC(=O)CCl)c2ccc(-c3csc4ccccc34)cc21 [QW-505] | 1.8 min | 
24 | CC(C)Oc1ccc(-c2ccc3c(C(=O)NC(C)(C)COC(=O)CCl)nn(C)c3c2)cc1Cl [QW-550] | 25 min | 
25 | Cn1nc(C(=O)NC(C)(C)COC(=O)CCl)c2ccc(-c3ccc(Oc4ccccc4)c(Cl)c3)cc21 [QW-561] | 24 min | 
26 | Cn1nc(C(=O)NC(C)(C)COC(=O)CCl)c2ccc(-c3ccc4c(c3)OCO4)cc21 [QW-594] | 137 min | 0.085 µL/min/mg

More lines, main results first:

Row | Microsome Stability t1/2 (min) mouse | SMILES | unbound clearance rate
27 | 15 min | Cn1nc(C(=O)NC(C)(C)COC(=O)CCl)c2ccc(-c3ccc(Cl)c(Cl)c3)cc21 [QW-570] | 
28 | 26 min | Cn1nc(-n2cc(C(C)(C)COC(=O)CCl)nn2)c2ccc(-c3ccc(N4CCOCC4)c(Cl)c3)cc21 [QW-680] | 
29 | 10.7 min | COc1ccc(-c2ccc3c(C(=O)NC(C)(C)C(C)(C)OC(=O)CCl)nn(C)c3c2)cc1Cl [QW-730] | 
30 | 13.5 min | COc1c(Cl)cc(-c2ccc3c(C(=O)NC(C)(C)C(C)(C)OC(=O)CCl)nn(C)c3c2)cc1Cl [QW-750] | 

System: not given
Experiment: not given
Settings: not given

Row | SMILES | Plasma Stability t1/2 (min) human
31 | Cn1nc(C(=O)NC(C)(C)COC(=O)CCl)c2ccc(-c3csc4ccccc34)cc21 [QW-505] | 10.2 min
32 | CC(C)Oc1ccc(-c2ccc3c(C(=O)NC(C)(C)COC(=O)CCl)nn(C)c3c2)cc1Cl [QW-550] | 73.2 min
33 | Cn1nc(C(=O)NC(C)(C)COC(=O)CCl)c2ccc(-c3ccc(Oc4ccccc4)c(Cl)c3)cc21 [QW-561] | 116 min
34 | Cn1nc(C(=O)NC(C)(C)COC(=O)CCl)c2ccc(-c3ccc4c(c3)OCO4)cc21 [QW-594] | 6.6 min

Now from value to compound:

Row | Plasma Stability t1/2 (min) human | SMILES
35 | 56.7 min | Cn1nc(C(=O)NC(C)(C)COC(=O)CCl)c2ccc(-c3ccc(Cl)c(Cl)c3)cc21 [QW-570]
36 | 67.4 min | Cn1nc(-n2cc(C(C)(C)COC(=O)CCl)nn2)c2ccc(-c3ccc(N4CCOCC4)c(Cl)c3)cc21 [QW-680]
37 | 318 min | COc1ccc(-c2ccc3c(C(=O)NC(C)(C)C(C)(C)OC(=O)CCl)nn(C)c3c2)cc1Cl [QW-730]
38 | 290 min | COc1c(Cl)cc(-c2ccc3c(C(=O)NC(C)(C)C(C)(C)OC(=O)CCl)nn(C)c3c2)cc1Cl [QW-750]

System: not given
Experiment: not given
Settings: not given
Remark: another data set of the same source

Row | SMILES | Plasma Stability t1/2 (min) mouse | half-life in mouse plasma
39 | Cn1nc(C(=O)NC(C)(C)COC(=O)CCl)c2ccc(-c3csc4ccccc34)cc21 [QW-505] | 6.3 min | 
40 | CC(C)Oc1ccc(-c2ccc3c(C(=O)NC(C)(C)COC(=O)CCl)nn(C)c3c2)cc1Cl [QW-550] | 12.5 min | 
41 | Cn1nc(C(=O)NC(C)(C)COC(=O)CCl)c2ccc(-c3ccc(Oc4ccccc4)c(Cl)c3)cc21 [QW-561] | 23.9 min | 
42 | Cn1nc(C(=O)NC(C)(C)COC(=O)CCl)c2ccc(-c3ccc4c(c3)OCO4)cc21 [QW-594] | 17.0 min | 17 min

Further lines, with some results ahead:

Row | Plasma Stability t1/2 (min) mouse | SMILES | half-life in mouse plasma
43 | 16.9 min | Cn1nc(C(=O)NC(C)(C)COC(=O)CCl)c2ccc(-c3ccc(Cl)c(Cl)c3)cc21 [QW-570] | 
44 | 3.2 min | Cn1nc(-n2cc(C(C)(C)COC(=O)CCl)nn2)c2ccc(-c3ccc(N4CCOCC4)c(Cl)c3)cc21 [QW-680] | 
45 | 385 min | COc1ccc(-c2ccc3c(C(=O)NC(C)(C)C(C)(C)OC(=O)CCl)nn(C)c3c2)cc1Cl [QW-730] | 
46 | >1000 min | COc1c(Cl)cc(-c2ccc3c(C(=O)NC(C)(C)C(C)(C)OC(=O)CCl)nn(C)c3c2)cc1Cl [QW-750] | 

System: not listed separately
Experiment: Kinetic aqueous solubility
Settings: 1% DMSO, Phosphate Buffered Saline pH 7.4, 1 hour, ambient, UV/Vis absorbance

Row | Solubility | SMILES
47 | <1.3 µM | Cn1nc(C(=O)NC(C)(C)COC(=O)CCl)c2ccc(-c3csc4ccccc34)cc21 [QW-505]

Same assay, conditions: aqueous solubility; Table 9

Row | Solubility | SMILES
48 | <1.3 µM | Cn1nc(C(=O)NC(C)(C)COC(=O)CCl)c2ccc(-c3csc4ccccc34)cc21 [QW-505]
49 | 7.8 µM (≈ 3.84 µg/mL) | CC(C)Oc1ccc(-c2ccc3c(C(=O)NC(C)(C)COC(=O)CCl)nn(C)c3c2)cc1Cl [QW-550]
50 | 15.6 µM (≈ 8.21 µg/mL) | Cn1nc(C(=O)NC(C)(C)COC(=O)CCl)c2ccc(-c3ccc(Oc4ccccc4)c(Cl)c3)cc21 [QW-561]
51 | 15.6 µM (≈ 7.31 µg/mL) | Cn1nc(C(=O)NC(C)(C)COC(=O)CCl)c2ccc(-c3ccc(Cl)c(Cl)c3)cc21 [QW-570]

Row | SMILES | Solubility
52 | Cn1nc(C(=O)NC(C)(C)COC(=O)CCl)c2ccc(-c3ccc4c(c3)OCO4)cc21 [QW-594] | 1.0 µM (≈ 0.444 µg/mL)

Target: T1, GPX4 (Homo sapiens, UniProt P36969)
T1 sequence (P36969 1-170 isoform P36969-2): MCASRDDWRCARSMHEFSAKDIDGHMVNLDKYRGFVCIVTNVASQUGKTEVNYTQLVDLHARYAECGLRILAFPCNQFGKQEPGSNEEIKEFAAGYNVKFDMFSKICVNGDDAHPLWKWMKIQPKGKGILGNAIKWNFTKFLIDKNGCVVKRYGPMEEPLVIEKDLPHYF
Experiment: GPX4 activity assay in cell lysates (NADPH-coupled)
Type: biochemical
Set-up: endogenous in cells; host or cells: A-673 cell lysate
Settings: not given
Outline: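 Native GPX4 in lysates of A-673 cells grown with 20 nM sodium selenite; lysate preincubated with compound 45 min at 37 °C in pH 8.0 buffer with 3 mM GSH, 0.5 mM NADPH and glutathione reductase. Reaction started with phosphatidylcholine hydroperoxide; NADPH consumption followed at 340 nm over 25 min; triplicates.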

Row | SMILES | GPX4 inhibitory activity, result in words
53 | Cn1nc(C(=O)NC(C)(C)COC(=O)CCl)c2ccc(-c3ccc4c(c3)OCO4)cc21 [QW-594] | comparable to that of QW-446

Same assay, conditions: 2.5 μM

Row | GPX4% inhibition at 2.5 μM | SMILES
54 | 57.3 ± 2.8% | Cn1nc(-n2cc(C(C)(C)COC(=O)CCl)nn2)c2ccc(-c3ccc(N4CCOCC4)c(Cl)c3)cc21 [QW-680]
55 | 98.4 ± 17.6% | COc1ccc(-c2ccc3c(C(=O)NC(C)(C)C(C)(C)OC(=O)CCl)nn(C)c3c2)cc1Cl [QW-730]
56 | 20.4 ± 3.6% | COc1c(Cl)cc(-c2ccc3c(C(=O)NC(C)(C)C(C)(C)OC(=O)CCl)nn(C)c3c2)cc1Cl [QW-750]

Row | SMILES | GPX4% inhibition at 2.5 μM
57 | Cn1nc(C(=O)NC(C)(C)COC(=O)CCl)c2ccc(-c3ccc4c(c3)OCO4)cc21 [QW-594] | 71.5 ± 3.0%

Same assay, conditions: 5 μM

Row | GPX4% inhibition at 5 μM | SMILES
58 | 76.1 ± 4.0% | Cn1nc(C(=O)NC(C)(C)COC(=O)CCl)c2ccc(-c3csc4ccccc34)cc21 [QW-505]
59 | 91.5 ± 2.2% | CC(C)Oc1ccc(-c2ccc3c(C(=O)NC(C)(C)COC(=O)CCl)nn(C)c3c2)cc1Cl [QW-550]
60 | 87.6 ± 2.8% | Cn1nc(C(=O)NC(C)(C)COC(=O)CCl)c2ccc(-c3ccc(Oc4ccccc4)c(Cl)c3)cc21 [QW-561]
61 | 80.7 ± 14.8% | Cn1nc(C(=O)NC(C)(C)COC(=O)CCl)c2ccc(-c3ccc(Cl)c(Cl)c3)cc21 [QW-570]

Same assay, conditions: concentration not given

Row | SMILES | GPX4 inhibition rate
62 | Cn1nc(C(=O)NC(C)(C)COC(=O)CCl)c2ccc(-c3ccc4c(c3)OCO4)cc21 [QW-594] | 75%
